According to US20250195521A1 (Revolution Medicines, Inc., priority 2020, published 2025):

What was measured:
[1] = target: KRAS G12S (Homo sapiens (Human), UniProt P01116+P62937, G12S); test: Ras-Raf disruption/FRET/MOA assay (BRAF RBD, Cyclophilin A); format: biochemical; details: read-out: KRAS G12S FRET IC50
Procedure, shortened: (§1)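 Measured: compound-facilitated Cyclophilin A:Ras complex blocking RAF RBD binding. Conditions: 12.5 nM Ras-GMPPNP, 50 nM BRAF RBD, 25 μM CypA, 3 h plus 1.5 h detection. Output: IC50 from TR-FRET ratio.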

[2] = target: KRAS G12C (Homo sapiens (Human), UniProt P01116+P62937, G12C); test: as above; format: biochemical; details: read-out: KRAS G12C FRET IC50
Procedure, shortened: as §1

[3] = target: NRAS G12C (Homo sapiens (Human), UniProt P01111+P62937, G12C); test: as above; format: biochemical; details: read-out: NRAS G12C FRET data IC50
Procedure, shortened: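 TR-FRET readout: anti-His Eu-W1024 (10 nM) and anti-GST allophycocyanin (50 nM) added after 3 h, 25° C compound incubation, then 1.5 h more. Decrease in FRET ratio versus DMSO wells marks Ras:RAF disruption; IC50 reported.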

[4] = target: KRAS G13D (Homo sapiens (Human), UniProt P01116+P62937, G13D); test: as above; format: biochemical; details: read-out: KRAS G13D FRET data IC50
Procedure, shortened: as §1

[5] = target: KRAS WT (Homo sapiens (Human), UniProt P01116+P62937); test: as above; format: biochemical; details: read-out: KRAS WT FRET data IC50
Procedure, shortened: as §1

[6] = target: KRAS G13C (Homo sapiens (Human), UniProt P01116+P62937, G13C); test: as above; format: biochemical; details: read-out: KRAS G13C FRET IC50
Procedure, shortened: as §1

[7] = target: KRAS G12D (Homo sapiens (Human), UniProt P01116+P62937, G12D); test: as above; format: biochemical; details: read-out: KRAS G12D FRET IC50
Procedure, shortened: as §1

[8] = target: KRAS G12V (Homo sapiens (Human), UniProt P01116+P62937, G12V); test: as above; format: biochemical; details: read-out: KRAS G12V FRET IC50
Procedure, shortened: as §1

[9] = system: NCI-H358 cells (K-Ras G12C); test: CellTiter-Glo cell viability, NCI-H358; format: cell-based, human; details: Homo sapiens, NCI-H358, 120 h, K-Ras G12C, 5-day treatment; read-out: H358 Cell Viability IC50
Experimental: Note—The following protocol describes a procedure for monitoring cell viability of K-Ras mutant cancer cell lines in response to a compound of the invention. Other RAS isoforms may be employed, though the number of cells to be seeded will vary based on cell line used.
Test compounds (132.5 nl) were directly dispensed into the assay plates containing cells. […] On day 5, assay plates and their contents were equilibrated to room temperature for approximately 30 minutes. […] Luminescence was measured using the PerkinElmer Enspire. Data were normalized by the following: (Sample signal/Avg. DMSO)*100. The data were fit using a four-parameter logistic fit.

[10] = system: K-Ras G12C (NCI-H358 cells); test: Potency assay: pERK in NCI-H358 cells; format: cell-based, human; details: Homo sapiens; NCI-H358 cells, 4 hours; read-out: pERK EC50 (H358 KRAS G12C)
Procedure, shortened: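 Cells plated the day before were exposed for 4 h at 37° C, 5% CO2 to a 10-point, 3-fold DMSO dilution series (10 mM top stock), in duplicate. Phospho-ERK was read by AlphaLISA SureFire Ultra or by In-Cell Western with DRAQ5 DNA stain, and IC50 came from a 4-parameter sigmoidal fit.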

[11] = system: Capan-1 cells (K-Ras G12V); test: CellTiter-Glo cell viability, Capan-1; format: cell-based, human; details: Homo sapiens, CAPAN-1, 120 h, K-Ras G12V, 5-day treatment; read-out: Capan-1 Cell Viability IC50
Procedure, shortened: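 Compounds dispensed directly onto seeded cells; on day 5 plates equilibrated ~30 min to room temperature and luminescence read. Signal normalized to DMSO average (%) and fitted by four-parameter logistic.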

Sequence of KRAS G12D (P01116 other isoform, or with tags, fused parts or gaps G12D): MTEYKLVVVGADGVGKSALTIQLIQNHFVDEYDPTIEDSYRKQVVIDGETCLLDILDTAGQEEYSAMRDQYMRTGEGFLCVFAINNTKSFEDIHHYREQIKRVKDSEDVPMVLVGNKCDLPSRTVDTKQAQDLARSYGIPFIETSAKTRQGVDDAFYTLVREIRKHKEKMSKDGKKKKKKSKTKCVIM
Sequence of KRAS G12D (P62937 whole entry): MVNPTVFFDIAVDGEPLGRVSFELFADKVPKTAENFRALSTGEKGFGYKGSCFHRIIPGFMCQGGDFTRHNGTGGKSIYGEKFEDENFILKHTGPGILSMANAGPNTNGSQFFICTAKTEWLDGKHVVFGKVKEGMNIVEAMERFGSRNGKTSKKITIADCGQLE
Sequence of NRAS G12C (P01111 whole entry G12C): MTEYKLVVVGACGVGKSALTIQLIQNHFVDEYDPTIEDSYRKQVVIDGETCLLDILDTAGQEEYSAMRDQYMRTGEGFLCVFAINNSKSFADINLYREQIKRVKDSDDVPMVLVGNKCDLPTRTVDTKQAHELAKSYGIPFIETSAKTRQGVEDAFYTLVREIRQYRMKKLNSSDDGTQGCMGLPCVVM
Sequence of NRAS G12C (P62937 whole entry): as the sequence (P62937 whole entry) above
Sequence of KRAS G12C (P01116-2 other isoform, or with tags, fused parts or gaps G12C): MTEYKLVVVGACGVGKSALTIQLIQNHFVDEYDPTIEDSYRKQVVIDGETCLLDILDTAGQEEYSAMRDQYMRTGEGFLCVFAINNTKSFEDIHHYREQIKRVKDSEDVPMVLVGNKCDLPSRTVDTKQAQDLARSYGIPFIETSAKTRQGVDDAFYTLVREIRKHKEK
Sequence of KRAS G12C (P62937 whole entry): as the sequence (P62937 whole entry) above
Sequence of KRAS G12V (P01116 other isoform, or with tags, fused parts or gaps G12V): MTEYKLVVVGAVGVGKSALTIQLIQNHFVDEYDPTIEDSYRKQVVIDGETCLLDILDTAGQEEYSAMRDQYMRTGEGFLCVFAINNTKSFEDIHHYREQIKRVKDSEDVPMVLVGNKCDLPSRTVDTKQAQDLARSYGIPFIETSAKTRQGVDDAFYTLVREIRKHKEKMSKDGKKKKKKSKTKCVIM
Sequence of KRAS G12V (P62937 whole entry): as the sequence (P62937 whole entry) above
Sequence of KRAS G12S (P01116 other isoform, or with tags, fused parts or gaps G12S): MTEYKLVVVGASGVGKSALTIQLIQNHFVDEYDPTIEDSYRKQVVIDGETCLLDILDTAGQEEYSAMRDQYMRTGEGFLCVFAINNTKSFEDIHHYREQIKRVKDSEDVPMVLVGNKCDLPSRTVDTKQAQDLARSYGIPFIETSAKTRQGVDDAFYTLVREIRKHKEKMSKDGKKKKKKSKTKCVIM
Sequence of KRAS G12S (P62937 whole entry): as the sequence (P62937 whole entry) above
Sequence of KRAS G13C (P01116 other isoform, or with tags, fused parts or gaps G13C): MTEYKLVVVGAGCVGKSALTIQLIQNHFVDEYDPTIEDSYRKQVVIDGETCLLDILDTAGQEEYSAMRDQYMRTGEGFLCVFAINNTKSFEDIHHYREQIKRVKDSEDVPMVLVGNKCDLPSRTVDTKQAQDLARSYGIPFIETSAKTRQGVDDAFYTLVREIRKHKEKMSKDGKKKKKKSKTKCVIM
Sequence of KRAS G13C (P62937 whole entry): as the sequence (P62937 whole entry) above
Sequence of KRAS WT (P01116 other isoform, or with tags, fused parts or gaps): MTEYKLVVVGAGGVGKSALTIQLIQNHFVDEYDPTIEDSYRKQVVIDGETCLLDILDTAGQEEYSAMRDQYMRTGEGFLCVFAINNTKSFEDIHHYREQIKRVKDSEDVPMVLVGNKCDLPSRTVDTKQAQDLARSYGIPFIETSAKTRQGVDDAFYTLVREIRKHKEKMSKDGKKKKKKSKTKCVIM
Sequence of KRAS WT (P62937 whole entry): as the sequence (P62937 whole entry) above
Sequence of KRAS G13D (P01116 other isoform, or with tags, fused parts or gaps G13D): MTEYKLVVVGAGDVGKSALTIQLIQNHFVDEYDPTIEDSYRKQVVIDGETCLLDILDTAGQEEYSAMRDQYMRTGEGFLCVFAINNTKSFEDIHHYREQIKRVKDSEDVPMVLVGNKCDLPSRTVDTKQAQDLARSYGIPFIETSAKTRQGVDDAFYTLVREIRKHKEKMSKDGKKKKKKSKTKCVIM
Sequence of KRAS G13D (P62937 whole entry): as the sequence (P62937 whole entry) above

Row | SMILES | IC50 [1] | IC50 [2] | IC50 [3] | IC50 [4] | IC50 [5] | IC50 [6] | IC50 [7] | IC50 [8] | IC50 [9] | EC50 [10] | IC50 [11]
1 | CCn1c(-c2cnccc2COC)c2c3cc(ccc31)-c1cc(O)cc(c1)C[C@H](NC(=O)[C@H](C(C)C)N(C)C(=O)[C@H]1CCN(C3COC3)C1)C(=O)N1CCC[C@H](N1)C(=O)OCC(C)(C)C2 [Compound A51] | 100 to 1000 nM | 100 to 1000 nM | 1000 to 10000 nM | 100 to 1000 nM | 100 to 1000 nM | 100 to 1000 nM | 1000 to 10000 nM | 1000 to 10000 nM | 1000 to 10000 nM | < 5000 nM | –
2 | CCn1c(-c2cnccc2COC)c2c3cc(ccc31)-c1cc(O)cc(c1)C[C@H](NC(=O)[C@@H](NC(=O)c1ncco1)C(C)C)C(=O)N1CCC[C@H](N1)C(=O)OCC(C)(C)C2 [Compound A56] | 1000 to 10000 nM | 1000 to 10000 nM | 1000 to 10000 nM | 1000 to 10000 nM | 1000 to 10000 nM | 1000 to 10000 nM | > 10000 nM | 1000 to 10000 nM | > 10000 nM | < 5000 nM | –
3 | CCn1c(-c2cnccc2COC)c2c3cc(ccc31)-c1cc(O)cc(c1)C[C@H](NC(=O)[C@H](C(C)C)N(C)C(=O)O[C@@H]1CCOC1)C(=O)N1CCC[C@H](N1)C(=O)OCC(C)(C)C2 [Compound A82] | 1000 to 10000 nM | 100 to 1000 nM | 1000 to 10000 nM | 1000 to 10000 nM | 100 to 1000 nM | 100 to 1000 nM | 1000 to 10000 nM | 1000 to 10000 nM | 1000 to 10000 nM | – | 1000 to 10000 nM
4 | CCn1c(-c2cccnc2[C@H](C)OC)c2c3cc(ccc31)-c1cc(O)cc(c1)C[C@H](NC(=O)[C@H](C(C)C)N(C)C(=O)[C@H]1[C@@H]3CNC[C@@H]31)C(=O)N1CCC[C@H](N1)C(=O)OCC(C)(C)C2 [Compound A163] | 100 to 1000 nM | 100 to 1000 nM | 100 to 1000 nM | 10 to 100 nM | 100 to 1000 nM | 100 to 1000 nM | 100 to 1000 nM | 1000 to 10000 nM | 1000 to 10000 nM | – | > 10000 nM
5 | CCn1c(-c2cccnc2[C@H](C)OC)c2c3cc(ccc31)-c1cc(O)cc(c1)C[C@H](NC(=O)[C@H](C(C)C)N(C)C(=O)[C@H]1CCN(C(=O)CCc3ccccc3)C1)C(=O)N1CCC[C@H](N1)C(=O)OCC(C)(C)C2 [Compound A201] | 100 to 1000 nM | 10 to 100 nM | 10 to 100 nM | 100 to 1000 nM | 100 to 1000 nM | 10 to 100 nM | 100 to 1000 nM | 10 to 100 nM | 100 to 1000 nM | – | 100 to 1000 nM
6 | CCn1c(-c2ccccc2[C@H](C)OC)c2c3cc(ccc31)-c1csc(n1)C[C@H](NC(=O)[C@H](C(C)C)N(C)C(=O)[C@H]1CCN(C(=O)OC3COC3)C1)C(=O)N1CCC[C@H](N1)C(=O)OCC(C)(C)C2 [Compound A203] | 1000 to 10000 nM | 1000 to 10000 nM | 1000 to 10000 nM | 1000 to 10000 nM | 1000 to 10000 nM | 1000 to 10000 nM | > 10000 nM | 1000 to 10000 nM | 100 to 1000 nM | – | 100 to 1000 nM
7 | CCn1c(-c2cccnc2[C@H](C)OC)c2c3cc(ccc31)-c1cc(O)cc(c1)C[C@H](NC(=O)[C@H](C(C)C)N(C)C(=O)C1CCC1)C(=O)N1CCC[C@H](N1)C(=O)OCC(C)(C)C2 [Compound A218] | 10 to 100 nM | 10 to 100 nM | 10 to 100 nM | 100 to 1000 nM | 10 to 100 nM | 10 to 100 nM | 100 to 1000 nM | 10 to 100 nM | 10 to 100 nM | – | 10 to 100 nM
8 | CCn1c(-c2cccnc2[C@H](C)OC)c2c3cc(ccc31)-c1cc(O)cc(c1)C[C@H](NC(=O)[C@H](C(C)C)N(C)C(=O)C1CC1)C(=O)N1CCC[C@H](N1)C(=O)OCC(C)(C)C2 [Compound A224] | 10 to 100 nM | 10 to 100 nM | 10 to 100 nM | 10 to 100 nM | 10 to 100 nM | 10 to 100 nM | 100 to 1000 nM | 10 to 100 nM | 10 to 100 nM | – | 10 to 100 nM
